The source of these data is patent US20200375987A1, “METALLO-BETA-LACTAMASE INHIBITORS AND METHODS OF USE THEREOF” (priority 2018, published 2020).

Structures are written as SMILES.

The target in one experiment is NDM-1 (Klebsiella pneumoniae, UniProt C7C422). Nature of the experiment: Enzyme activity: determination of IC50, fluorescence assay with CCF2-FA substrate (NDM-1). Format: biochemical. The following applies: 1 pM enzyme, 1.25 μM CCF2-FA, 2 hours at 25° C.; read-out: NDM1 IC50. The procedure, abridged:
(§1)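 In 100 mM phosphate pH 7 containing Tween-20 and ZnSO4, NDM-1 (1 pM), IMP-1 (2 pM) or VIM-1 (30 pM) hydrolysed 1.25 μM CCF2-FA over 2 hours at 25° C with inhibitor present. Readout was 405/460 nm fluorescence.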

The test system of experiment [1] is Klebsiella pneumoniae expressing VIM-1 (IHMA599644). Description: Antibiotic potentiation activity: synergistic concentration (MITC95) with imipenem. Format: cell-based. The following applies: imipenem 1 μg/mL; lowest concentration inhibiting 95% of growth; 35° C., 22-24 hours. The procedure, abridged: (§2)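 Clinical MBL-expressing strains diluted into 1.1× CAMHB were incubated with compound plus imipenem at 1 μg/mL for 22–24 h at 35 °C, then absorbance was read. MITC95 is the lowest compound concentration giving 95% growth inhibition in the presence of imipenem.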

In experiment [2] the test system is Serratia marcescens expressing IMP-1 (CL5741). The description is as above. The following applies: imipenem 1 μg/mL; lowest concentration inhibiting 95% of growth; 35° C., 22-24 hours. It is filed as cell-based. Summed up: as §2
Experiment [3] deals with Escherichia coli expressing NDM-1 (CLB30016). Described as above. It is filed as cell-based. The following applies: imipenem 1 μg/mL; lowest concentration inhibiting 95% of growth; 35° C., 22-24 hours. The procedure, abridged: as §2
Another experiment concerns the target VIM-1 (Pseudomonas aeruginosa, UniProt A0A0F7KYQ8). Description: Enzyme activity: determination of IC50, fluorescence assay with CCF2-FA substrate (VIM-1). Format: biochemical. The following applies: 30 pM enzyme, 1.25 μM CCF2-FA, 2 hours at 25° C.; read-out: VIM1 IC50. Summed up:
as §1

For another experiment, the target named is IMP-1 (Serratia marcescens, UniProt P52699). Description: Enzyme activity: determination of IC50, fluorescence assay with CCF2-FA substrate (IMP-1). The following applies: 2 pM enzyme, 1.25 μM CCF2-FA, 2 hours at 25° C.; read-out: IMP1 IC50. It is filed as biochemical. Summed up:
as §1

A further experiment has as its target VIM-2 (Escherichia coli, UniProt Q5U7L7). Nature of the experiment: Enzyme activity: determination of IC50 (VIM-2). The following applies: read-out: VIM2 IC50. Format: biochemical.
The test system of experiment [4] is P. aeruginosa MB9798 (efflux WT, IMP-1). Nature of the experiment: Efflux: concentration of MBL inhibitor restoring susceptibility to imipenem (MITC95), efflux+ strain. It is filed as cell-based, Pseudomonas aeruginosa. The following applies: imipenem at 2 μg/mL in the presence of a class A, C, D serine β-lactamase inhibitor closely related to relebactam. Summed up:
(§3)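 Isogenic P. aeruginosa PAO1 strains, efflux+ and efflux−, transformed with IMP-1 plasmid, were tested by microbroth MIC with fixed imipenem, usually at CLSI breakpoint, plus fixed class A/C β-lactamase inhibitor against AmpC. MBL inhibitor was serially titrated; the concentration restoring susceptibility was recorded.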

Experiment [5] has as its system P. aeruginosa MB9799 (efflux mutant, IMP-1). Nature of the experiment: Efflux: concentration of MBL inhibitor restoring susceptibility to imipenem (MITC95), efflux− strain. It is filed as cell-based, Pseudomonas aeruginosa. The following applies: imipenem at 2 μg/mL in the presence of a class A, C, D serine β-lactamase inhibitor closely related to relebactam. The procedure, abridged: as §3

Chain of IMP-1 (P52699 19-246, looked up, species assumed): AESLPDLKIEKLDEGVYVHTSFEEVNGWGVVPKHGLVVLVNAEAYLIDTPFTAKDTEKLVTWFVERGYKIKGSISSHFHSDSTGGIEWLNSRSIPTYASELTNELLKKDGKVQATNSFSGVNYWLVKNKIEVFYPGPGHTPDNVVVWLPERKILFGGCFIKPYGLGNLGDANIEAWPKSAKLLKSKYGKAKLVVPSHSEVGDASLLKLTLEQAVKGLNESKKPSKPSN
Chain of NDM-1 (C7C422 29-270, looked up, species assumed): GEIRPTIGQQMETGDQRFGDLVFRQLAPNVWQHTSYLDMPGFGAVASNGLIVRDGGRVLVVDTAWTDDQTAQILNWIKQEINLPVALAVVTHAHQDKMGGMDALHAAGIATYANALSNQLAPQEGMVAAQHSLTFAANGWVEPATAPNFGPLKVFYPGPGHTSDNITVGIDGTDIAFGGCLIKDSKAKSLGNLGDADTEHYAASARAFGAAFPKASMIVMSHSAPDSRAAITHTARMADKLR

As for `NS(=O)(=O)c1c(S(=O)(=O)N[C@@H]2CCNC2)ccc(N2CCc3ccncc32)c1-c1nnn[nH]1` [Example 33, 4-(2,3-dihydro-1H-pyrrolo[2,3-c]pyridin-1-yl)-N1-[(3R)-pyrrolidin-3-yl]-3-(1H-tetrazol-5-yl)benzene-1,2-disulfonamide], the concentration for half-maximal inhibition (IC50) – broadly, the concentration needed to halve the response being measured – amounted to 0.3 nM at NDM-1, 0.26 nM at VIM-1, 1.73 nM on IMP-1 and 0.72 nM at VIM-2. Further, in [1], the “IHMA599644 K.pneumoniae MITC95 uM VIM” value amounted to 3.13 µM. The “CL5741 S.marcescens MITC95 uM IMP” value in experiment [2] turned out to be 3.13 µM. The “CLB30016 E.coli MITC95 NDM” value in experiment [3] is 1.56 µM. The “MB9798 MITC95 P. aeruginosa Efflux WT” value in experiment [4] was 6.25 µM. For the same compound, the “MB9799 MITC95 P. aeruginosa Efflux Mutant” value in experiment [5] was 1.56 µM.

For the compound `NS(=O)(=O)c1c(S(=O)(=O)N[C@@H]2CCNC2)ccc(N2CCc3ncccc32)c1-c1nnn[nH]1` [Example 34, 4-(2,3-dihydro-1H-pyrrolo[3,2-b]pyridin-1-yl)-N1-[(3R)-pyrrolidin-3-yl]-3-(1H-tetrazol-5-yl)benzene-1,2-disulfonamide], the IC50 at NDM-1 is 0.29 nM; on VIM-1 it was 0.25 nM; at IMP-1 it was 5.21 nM; on VIM-2, 0.81 nM. In addition, the “IHMA599644 K.pneumoniae MITC95 uM VIM” value in [1] was 3.13 µM. Besides, the “CL5741 S.marcescens MITC95 uM IMP” value in [2] was found to be 1.56 µM. The “CLB30016 E.coli MITC95 NDM” value in experiment [3] worked out at 0.39 µM. The “MB9798 MITC95 P. aeruginosa Efflux WT” value in experiment [4] was 12.50 µM. Further, in experiment [5], the “MB9799 MITC95 P. aeruginosa Efflux Mutant” value amounted to 1.56 µM.

Turning to `NS(=O)(=O)c1c(S(=O)(=O)N[C@@H]2CCNC2)ccc(N2CCCc3ccc(CCO)nc32)c1-c1nnn[nH]1` [Example 35, 4-[7-(2-hydroxyethyl)-3,4-dihydro-1,8-naphthyridin-1(2H)-yl]-N1-[(3R)-pyrrolidin-3-yl]-3-(1H-tetrazol-5-yl)benzene-1,2-disulfonamide], the IC50 at NDM-1 came out at 4.34 nM; at VIM-1, 5.78 nM; on IMP-1, 4.68 nM; on VIM-2 it was 5.59 nM. In addition, the “IHMA599644 K.pneumoniae MITC95 uM VIM” value in [1] came out at 6.25 µM. In experiment [2], the “CL5741 S.marcescens MITC95 uM IMP” value was determined as 1.56 µM. The “CLB30016 E.coli MITC95 NDM” value in [3] was determined as 0.78 µM. Besides, in [4], the “MB9798 MITC95 P. aeruginosa Efflux WT” value stood at 50.00 µM. In addition, in experiment [5], the “MB9799 MITC95 P. aeruginosa Efflux Mutant” value was found to be 0.78 µM.

Take `NC[C@@H](O)CNS(=O)(=O)c1ccc(N2CCc3cccnc32)c(-c2nn[nH]n2)c1S(N)(=O)=O` [Example 36, (R)—N1-(3-amino-2-hydroxypropyl)-4-(2,3-dihydro-1H-pyrrolo [2,3-b]pyridin-1-yl)-3-(2H-tetrazol-5-yl)benzene-1,2-disulfonamide]: the IC50 on NDM-1 is 0.36 nM; at VIM-1 it was 0.27 nM; at IMP-1 it was 1.4 nM; on VIM-2, 0.49 nM. The “IHMA599644 K.pneumoniae MITC95 uM VIM” value in experiment [1] was determined as 3.13 µM. The “CL5741 S.marcescens MITC95 uM IMP” value in [2] stood at 1.56 µM. Moreover, in [3], the “CLB30016 E.coli MITC95 NDM” value turned out to be 1.56 µM. For the same compound, the “MB9798 MITC95 P. aeruginosa Efflux WT” value in [4] was 12.50 µM. Besides, the “MB9799 MITC95 P. aeruginosa Efflux Mutant” value in [5] was 0.78 µM.

For the compound `NC[C@@H](O)CS(=O)(=O)c1ccc(N2CCCn3ccnc32)c(-c2nn[nH]n2)c1S(N)(=O)=O` [Example 37, (R)-6-((3-amino-2-hydroxypropyl)sulfonyl)-3-(6,7-dihydroimidazo[1,2-a]pyrimidin-8(5H)-yl)-2-(2H-tetrazol-5-yl)benzenesulfonamide], the IC50 came out at 4.31 nM at NDM-1, 2.22 nM at VIM-1, 5.6 nM at IMP-1 and 4.44 nM at VIM-2. Besides, in experiment [1], the “IHMA599644 K.pneumoniae MITC95 uM VIM” value worked out at 1.56 µM. For the same compound, in experiment [2], the “CL5741 S.marcescens MITC95 uM IMP” value is 0.78 µM. The “CLB30016 E.coli MITC95 NDM” value in experiment [3] worked out at 0.20 µM. Further, the “MB9798 MITC95 P. aeruginosa Efflux WT” value in [4] turned out to be 3.13 µM. In addition, in experiment [5], the “MB9799 MITC95 P. aeruginosa Efflux Mutant” value is 0.78 µM.

On to `NC[C@@H](O)CNS(=O)(=O)c1ccc(N2CCC(CO)n3ccnc32)c(-c2nn[nH]n2)c1S(N)(=O)=O` (stereo partly drawn) [Example 38, N1-((R)-3-amino-2-hydroxypropyl)-4-(5-(hydroxymethyl)-6,7-dihydroimidazo[1,2-a]pyrimidin-8(5H)-yl)-3-(2H-tetrazol-5-yl)benzene-1,2-disulfonamide], for which the IC50 turned out to be 0.64 nM at NDM-1, 0.4 nM on VIM-1, 4.17 nM at IMP-1 and 2.42 nM at VIM-2. Also, the “IHMA599644 K.pneumoniae MITC95 uM VIM” value in experiment [1] came out at 1.56 µM. The “CL5741 S.marcescens MITC95 uM IMP” value in experiment [2] came out at 0.78 µM. The “CLB30016 E.coli MITC95 NDM” value in experiment [3] is 0.20 µM. Further, the “MB9798 MITC95 P. aeruginosa Efflux WT” value in experiment [4] turned out to be 1.56 µM. Further, the “MB9799 MITC95 P. aeruginosa Efflux Mutant” value in experiment [5] is 0.78 µM.

On to `NC[C@@H](O)CNS(=O)(=O)c1ccc(N2CC[C@@H](CO)n3ccnc32)c(-c2nn[nH]n2)c1S(N)(=O)=O` [Example 39, N1-((R)-3-amino-2-hydroxypropyl)-4-((S)-5-(hydroxymethyl)-6,7-dihydroimidazo[1,2-a]pyrimidin-8(5H)-yl)-3-(2H-tetrazol-5-yl)benzene-1,2-disulfonamide], for which the IC50 at NDM-1 turned out to be 0.89 nM; on VIM-1 it was 1.62 nM; at IMP-1, 6.52 nM; on VIM-2 it was 14.3 nM. In experiment [1], the “IHMA599644 K.pneumoniae MITC95 uM VIM” value was determined as 1.56 µM. In addition, the “CL5741 S.marcescens MITC95 uM IMP” value in experiment [2] came out at 0.78 µM. The “CLB30016 E.coli MITC95 NDM” value in [3] is 0.29 µM. In addition, the “MB9798 MITC95 P. aeruginosa Efflux WT” value in experiment [4] was 2.34 µM. In addition, the “MB9799 MITC95 P. aeruginosa Efflux Mutant” value in experiment [5] was determined as 1.17 µM.

With `NC[C@@H](O)CNS(=O)(=O)c1ccc(N2CC[C@H](CO)n3ccnc32)c(-c2nn[nH]n2)c1S(N)(=O)=O` [Example 40, N1-((R)-3-amino-2-hydroxypropyl)-4-((R)-5-(hydroxymethyl)-6,7-dihydroimidazo[1,2-a]pyrimidin-8(5H)-yl)-3-(2H-tetrazol-5-yl)benzene-1,2-disulfonamide], the IC50 is 1.15 nM on NDM-1, 0.27 nM at VIM-1, 5 nM at IMP-1 and 2.09 nM on VIM-2. In addition, the “IHMA599644 K.pneumoniae MITC95 uM VIM” value in experiment [1] was found to be 1.56 µM. Moreover, the “CL5741 S.marcescens MITC95 uM IMP” value in experiment [2] amounted to 0.39 µM. In [3], the “CLB30016 E.coli MITC95 NDM” value came out at 0.10 µM. For the same compound, the “MB9798 MITC95 P. aeruginosa Efflux WT” value in experiment [4] stood at 1.56 µM. Moreover, the “MB9799 MITC95 P. aeruginosa Efflux Mutant” value in experiment [5] is 0.78 µM.

Take `NC[C@@H](O)CNS(=O)(=O)c1ccc(-n2ccnc2)c(-c2nn[nH]n2)c1S(N)(=O)=O` [Example 41, (R)—N1-(3-amino-2-hydroxypropyl)-4-(1H-imidazol-1-yl)-3-(2H-tetrazol-5-yl)benzene-1,2-disulfonamide]: the concentration for half-maximal inhibition (IC50) on NDM-1 came out at 0.66 nM; on VIM-1 it was 1.05 nM; on IMP-1 it was 2.97 nM; at VIM-2, 0.96 nM. Moreover, the “IHMA599644 K.pneumoniae MITC95 uM VIM” value in experiment [1] was determined as 1.56 µM. Moreover, in [2], the “CL5741 S.marcescens MITC95 uM IMP” value worked out at 0.78 µM. For the same compound, the “CLB30016 E.coli MITC95 NDM” value in experiment [3] was found to be 0.78 µM. Also, the “MB9798 MITC95 P. aeruginosa Efflux WT” value in [4] was found to be 1.56 µM. The “MB9799 MITC95 P. aeruginosa Efflux Mutant” value in [5] was found to be 0.78 µM.
